The test system of this test is Treg cells (CD4+CD25highFoxP3+). Briefly: Antigen-specific tolerogenic dendritic cells (tDC) activity on Treg cell development. Particulars: FIG. 3; tDC cultured with OTII T cells 4-5 days, flow cytometry. The class given is cell-based, OTII mice. Here is the method:
The assay included the use of OTII mice which have a transgenic T cell receptor specific for an immune-dominant ovalbumin peptide (323-339). In order to create antigen-specific tDCs, CD11c^+ splenocytes were isolated, and the ovalbumin peptide (323-339) added in vitro at 1 μg/ml or no antigen. Soluble or nanocarrier-encapsulated rapamycin was then added to the DCs for 2 hours which were then washed extensively to remove free rapamycin from the culture. Purified responder CD4^+CD25^− cells were isolated from OTII mice and added to tDC at a 10:1 T to DC ratio. The mixture of tDC and OTII T cells were then cultured for 4-5 days, and the frequency of Treg cells (CD4^+CD25highFoxP3^+) were analyzed by flow cytometry as shown in FIG. 1. Regions were selected based on isotype controls.
Free rapamycin or synthetic nanocarriers containing rapamycin were combined with free soluble Ovalbumin (323-339) to evaluate induction of tDC (FIG. 2). […] Briefly, antigen specific tDC were obtained by isolating dendritic cells (CD11c^+ splenocytes) and culturing them in combination with the Ovalbumin (323-339) peptide plus soluble or nanocarrier encapsulated rapamycin (Synthetic Nanocarrier #s 13, 14, 15 and 16) for 2 hours followed by extensive washing. […] The mixture of tDC and OTII T cells were then cultured for 4-5 days, and the frequency of Treg cells (CD4^+CD25highFoxP3^+) were analyzed by flow cytometry.
In general terms: A flow cytometer gives signals particle by particle.

Consider 1 compound from patent US11235057B2, “Methods for providing polymeric synthetic nanocarriers for generating antigen-specific tolerance immune responses” (Selecta Biosciences, Inc., priority 2011, dated 2022).

Each structure is given as a SMILES string.

As to `CO[C@H]1C[C@@H]2CC[C@@H](C)[C@@](O)(O2)C(=O)C(=O)N2CCCC[C@H]2C(=O)O[C@H]([C@H](C)C[C@@H]2CC[C@@H](O)[C@H](OC)C2)CC(=O)[C@H](C)/C=C(\C)[C@@H](O)[C@@H](OC)C(=O)[C@H](C)C[C@H](C)/C=C/C=C/C=C/1C` [rapamycin], the “induction of FoxP3 expressing cells” value worked out at 2.7%.
